Results published in patent publication US20250115598A1 (Anaxis Pharma Pty Ltd, priority 2021, published 2025).
pIC50, pKd: −log10 of the molar value.

Tests used:
human MLKL (full length) = human MLKL (full length) (Homo sapiens (Human), UniProt Q8NB16); assay: KINOMEscan binding assay, human MLKL (full length); settings: hMLKL, Table 25; read-out: MLKL (KD)
Procedure, shortened: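 Competition binding format with qPCR detection. Kinases, either phage-fused from E. coli lysates or HEK-293-derived with a DNA tag, bound ligand-coated beads in the presence of compound (11 points, 3-fold steps, 1% DMSO, top usually 30,000 nM). Kd from nonlinear Hill fitting with slope −1.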

[1] = tested on: Immortalised Mouse Dermal Fibroblasts (MDFs); assay: Cellular assay: inhibition of TSI induced necroptosis, CellTitre-Glo viability; settings: Mus musculus, Fibroblast; MDF, 3 hours TSI cocktail, Table 27; read-out: Inhibition of TSI-induced necroptosis (IC50 cell-based assay) in MDF
Procedure, shortened: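 Necroptosis induced for 3 h with TSI: rhTNF 100 ng/ml, Smac mimetic 500 nM, caspase inhibitor IDN-6556 10 μM. Mouse dermal fibroblasts had received compound (36 μM top, ten three-fold steps) 30 min beforehand. ATP-based viability scaled between untreated and TSI-only wells; IC50 taken as 4-parameter curve inflection.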

endogenous MLKL in U937 = endogenous MLKL in U937 (Homo sapiens (Human), UniProt Q8NB16); assay: Degradation assay: endogenous MLKL in U937 (western blot); settings: U937, 24 h incubation, read-out: Degradation of endogenous MLKL in U937 (DC50 cell-based assay)
Protocol: Degradation Assay: Screening Compounds Procedure to Evaluate the Activity of Compounds in Degrading Endogenous MLKL in Human and Mouse Cell
The mouse dermal fibroblast (MDF) cell line was seeded the day before the experiment in a 24-well plate at a cell density of […] per well in a volume of 0.5 mL per well and left to attach overnight. The human monocyte cell line (U937) was seeded on the day of the experiment in a 24-well plate at a cell density of […] per well in a volume of 0.5 mL per well.
The compound was diluted in DMSO with a starting concentration of 10 mM and titrated stepwise with a dilution of 1:5. 0.5 μL of the compound dilution was added to the appropriate well to achieve a final concentration of 10; 2; 0.4; 0.08 and 0.016 μM. A DMSO only well was included as control.
The cells were incubated for 24 h in the presence of the compound at 37° C. and 10% CO2.
After the 24 h incubation period, the medium was removed and cells washed with 0.5 mL PBS. The cells were then lysed directly in 60 μL of 1×SDS gel loading buffer.
The cell lysate was heat-denatured at […] for 10 min. 10 μL of lysate per well were run on 18-well 4-15% Criterion TGX stain free gels (BIO-RAD). The proteins were then transferred onto nitrocellulose membrane with a wet transfer protocol in the Criterion Blotter (BIO-RAD).
Membranes were blocked with 5% skim milk in TBST. Primary antibody against MLKL (clone 3H1, MABC604 Merck) was used at 1:2000 dilution in TBST with 1% BSA and left shaking over night at 4° C. After washes with TBST, the membranes were incubated with goat anti-rat IgG HRP-conjugated antibody (Southern Biotech) in 1% skim milk TBST at 1:10000 dilution for 1 h at room temperature. After TBST washes the bands were imaged on the ChemiDoc MP Imaging System (BIO-RAD) with Immobilion Western Chemiluminescent HRP Substrate Forte (Millipore). The loading control GAPDH was probed for with rabbit anti-GAPDH (CST 14C10) at 1:2000 dilution in 1% BSA TBST over night at 4° C. TBST washes were followed by incubation with goat anti-rabbit IgG HRP-conjugated antibody (Southern Biotech) in 1% skim milk TBST at 1:10000 dilution for 1 h at room temperature followed by TBST washes. The signal was detected as described above.
The band intensity was measured in the ImageLab Software (BIO-RAD) and the MLKL values adjusted for loading with GAPDH. The percentage of degradation was calculated by normalizing the compound treated values to the DMSO only control.

endogenous MLKL in MDF = endogenous MLKL in MDF (Mus musculus (Mouse), UniProt Q9D2Y4); assay: Degradation assay: endogenous MLKL in MDF (western blot); settings: MDF cells, 24 h incubation with compound, MLKL adjusted for loading with GAPDH, normalized to DMSO only control, read-out: Degradation of endogenous MLKL in MDF (DC50 cell-based assay)
Procedure, shortened: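 Western blot band intensity of MLKL, adjusted to GAPDH loading and normalized to DMSO-only wells, gave percent degradation. Compound exposure lasted 24 h at final concentrations of 10–0.016 μM in 1:5 steps, in mouse dermal fibroblasts or human U937 cells.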

Sequence of endogenous MLKL in MDF (Q9D2Y4 whole entry): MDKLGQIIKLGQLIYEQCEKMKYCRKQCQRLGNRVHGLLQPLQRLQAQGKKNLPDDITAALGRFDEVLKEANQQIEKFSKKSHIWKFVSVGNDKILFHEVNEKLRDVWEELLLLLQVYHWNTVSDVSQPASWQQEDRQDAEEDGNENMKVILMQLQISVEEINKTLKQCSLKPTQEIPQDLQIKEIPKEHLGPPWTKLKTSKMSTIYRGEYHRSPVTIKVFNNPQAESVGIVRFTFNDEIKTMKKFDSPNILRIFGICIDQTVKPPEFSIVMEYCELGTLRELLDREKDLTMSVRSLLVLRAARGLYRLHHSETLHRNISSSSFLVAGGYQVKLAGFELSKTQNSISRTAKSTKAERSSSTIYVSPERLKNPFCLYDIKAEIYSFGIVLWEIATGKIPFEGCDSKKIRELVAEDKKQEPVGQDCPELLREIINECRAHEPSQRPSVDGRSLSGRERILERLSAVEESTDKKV
Sequence of human MLKL (full length) (Q8NB16 whole entry, the tested form may be a part): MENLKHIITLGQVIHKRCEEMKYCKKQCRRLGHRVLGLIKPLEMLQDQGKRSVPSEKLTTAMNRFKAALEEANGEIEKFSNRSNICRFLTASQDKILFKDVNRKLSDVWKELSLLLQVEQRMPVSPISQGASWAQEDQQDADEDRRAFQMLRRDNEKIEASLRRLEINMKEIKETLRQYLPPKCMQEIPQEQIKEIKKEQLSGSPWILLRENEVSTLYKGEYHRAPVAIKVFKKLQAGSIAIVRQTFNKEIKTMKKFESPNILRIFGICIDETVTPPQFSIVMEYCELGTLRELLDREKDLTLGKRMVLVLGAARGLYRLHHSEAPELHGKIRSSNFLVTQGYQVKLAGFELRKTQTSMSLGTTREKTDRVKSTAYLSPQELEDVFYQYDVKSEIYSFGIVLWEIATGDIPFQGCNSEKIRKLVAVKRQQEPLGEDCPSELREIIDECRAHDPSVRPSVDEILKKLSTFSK
Sequence of endogenous MLKL in U937 (Q8NB16 whole entry): as the sequence (Q8NB16 whole entry, the tested form may be a part) above

| pKd (human MLKL (full length)) | DC50 (endogenous MLKL in U937) | DC50 (endogenous MLKL in MDF) | SMILES | pIC50 [1] |
| --- | --- | --- | --- | --- |
| > 8.00 | < 1000 nM | < 1000 nM | C[C@H](Oc1cc(-c2nn(C)c3c(-c4cnn(C5CCN(C(=O)C6CCC(c7ccc8c(c7)C(=O)N(C7CCC(=O)NC7=O)C8=O)CC6)CC5)c4)cnc(N)c23)ccc1NS(=O)(=O)C(F)F)c1ccc(F)cc1 (stereo partly drawn) [Compound 1126, N-(4-{4-amino-7-[1-(1-{4-[2-(2,6-dioxopiperidin-3-yl)-1,3-dioxo-2,3-dihydro-1H-isoindol-5-yl]cyclohexanecarbonyl}piperidin-4-yl)-1H-pyrazol-4-yl]-1-methyl-1H-pyrazolo[4,3-c]pyridin-3-yl}-2-[(1S)-1-(4-fluorophenyl)ethoxy]phenyl)-1,1-difluoromethanesulfonamide] | > 6.00 |
| > 8.00 | < 1000 nM | < 1000 nM | Cn1nc(-c2ccc(NS(=O)(=O)C(F)F)c(F)c2)c2c(N)ncc(-c3cnn(C4CCN(C(=O)N5CCN(c6cccc7c6C(=O)N(C6CCC(=O)NC6=O)C7=O)CC5)CC4)c3)c21 (stereo not drawn) [Compound 1131, N-(4-{4-amino-7-[1-(1-{4-[2-(2,6-dioxopiperidin-3-yl)-1,3-dioxo-2,3-dihydro-1H-isoindol-4-yl]piperazine-1-carbonyl}piperidin-4-yl)-1H-pyrazol-4-yl]-1-methyl-1H-pyrazolo[4,3-c]pyridin-3-yl}-2-fluorophenyl)-1,1-difluoromethanesulfonamide] | 5.00 to 6.00 |
| > 8.00 | < 1000 nM | < 1000 nM | Cn1nc(-c2ccc(NS(=O)(=O)C(F)F)c(F)c2)c2c(N)ncc(-c3cnn(C4CCN(C(=O)CCC5CCN(c6cccc7c6C(=O)N(C6CCC(=O)NC6=O)C7=O)CC5)CC4)c3)c21 (stereo not drawn) [Compound 1113, N-[4-(4-amino-7-{1-[1-(3-{1-[2-(2,6-dioxopiperidin-3-yl)-1,3-dioxo-2,3-dihydro-1H-isoindol-4-yl]piperidin-4-yl}propanoyl)piperidin-4-yl]-1H-pyrazol-4-yl}-1-methyl-1H-pyrazolo[4,3-c]pyridin-3-yl}-2-fluorophenyl]-1,1-difluoromethanesulfonamide] | 5.00 to 6.00 |
| > 8.00 | < 1000 nM | < 1000 nM | C[C@H](Oc1cc(-c2nn(C)c3c(-c4cnn(C5CCN(CCCN6CCN(C(=O)COc7ccc8c(c7)C(=O)N(C7CCC(=O)NC7=O)C8=O)CC6)CC5)c4)cnc(N)c23)ccc1NS(=O)(=O)C(F)F)c1ccc(F)cc1 (stereo partly drawn) [Compound 1091, N-(4-{4-amino-7-[1-(1-{3-[4-(2-{[2-(2,6-dioxopiperidin-3-yl)-1,3-dioxo-2,3-dihydro-1H-isoindol-5-yl]oxy}acetyl)piperazin-1-yl]propyl}piperidin-4-yl)-1H-pyrazol-4-yl]-1-methyl-1H-pyrazolo[4,3-c]pyridin-3-yl}-2-[(1S)-1-(4-fluorophenyl)ethoxy]phenyl)-1,1-difluoromethanesulfonamide] | > 6.00 |

Second part, the compound before the results:

| SMILES | pKd (human MLKL (full length)) | DC50 (endogenous MLKL in U937) | DC50 (endogenous MLKL in MDF) | pIC50 [1] |
| --- | --- | --- | --- | --- |
| C[C@H](Oc1cc(-c2nn(C)c3c(-c4cnn(C5CCN(C(=O)C6CCN(c7cccc8c7C(=O)N(C7CCC(=O)NC7=O)C8=O)C6)CC5)c4)cnc(N)c23)ccc1NS(=O)(=O)C(F)F)c1ccc(F)cc1 (stereo partly drawn) [Compound 1054, N-(4-{4-amino-7-[1-(1-{1-[2-(2,6-dioxopiperidin-3-yl)-1,3-dioxo-2,3-dihydro-1H-isoindol-4-yl]pyrrolidine-3-carbonyl}piperidin-4-yl)-1H-pyrazol-4-yl]-1-methyl-1H-pyrazolo [4,3-c]pyridin-3-yl}-2-[(1S)-1-(4-fluorophenyl)ethoxy]phenyl)-1,1-difluoromethanesulfonamide] | 6.00 to 8.00 | < 1000 nM | < 1000 nM | > 6.00 |
| C[C@H](Oc1cc(-c2nn(C)c3c(-c4cnn(C5CCN(C(=O)C6CN(c7cccc8c7C(=O)N(C7CCC(=O)NC7=O)C8=O)C6)CC5)c4)cnc(N)c23)ccc1NS(=O)(=O)C(F)F)c1ccc(F)cc1 (stereo partly drawn) [Compound 1051, N-(4-{4-amino-7-[1-(1-{1-[2-(2,6-dioxopiperidin-3-yl)-1,3-dioxo-2,3-dihydro-1H-isoindol-4-yl]azetidine-3-carbonyl}piperidin-4-yl)-1H-pyrazol-4-yl]-1-methyl-1H-pyrazolo[4,3-c]pyridin-3-yl}-2-[(1S)-1-(4-fluorophenyl)ethoxy]phenyl)-1,1-difluoromethane-sulfonamide] | 6.00 to 8.00 | 1000 to 10000 nM | < 1000 nM | 5.00 to 6.00 |
| C[C@H](Oc1cc(-c2nn(C)c3c(-c4cnn(C5CCN(C(=O)CC6CN(c7cccc8c7C(=O)N(C7CCC(=O)NC7=O)C8=O)CCO6)CC5)c4)cnc(N)c23)ccc1NS(=O)(=O)C(F)F)c1ccc(F)cc1 (stereo partly drawn) [Compound 1081, N-[4-(4-amino-7-{1-[1-(2-{4-[2-(2,6-dioxopiperidin-3-yl)-1,3-dioxo-2,3-dihydro-1H-isoindol-4-yl]morpholin-2-yl}acetyl)piperidin-4-yl]-1H-pyrazol-4-yl}-1-methyl-1H-pyrazolo[4,3-c]pyridin-3-yl)-2-[(1S)-1-(4-fluorophenyl)ethoxy]phenyl]-1,1-difluoromethanesulfonamide] | > 8.00 | < 1000 nM | < 1000 nM | > 6.00 |
| Cc1ncsc1-c1ccc(CNC(=O)[C@@H]2C[C@@H](O)CN2C(=O)[C@@H](NC(=O)C2(F)CC2)C(C)(C)C)c(OCCCCCCn2cc(-c3cnc(N)c4c(-c5ccc(NS(=O)(=O)C(F)F)c(O[C@@H](C)c6ccc(F)cc6)c5)nn(C)c34)cn2)c1 [Compound 1057, (2S,4R)-N-[(2-{[6-(4-{4-amino-3-[4-(difluoromethanesulfonamido)-3-[(1S)-1-(4-fluorophenyl)ethoxy]phenyl]-1-methyl-1H-pyrazolo[4,3-c]pyridin-7-yl}-1H-pyrazol-1-yl)hexyl]oxy}-4-(4-methyl-1,3-thiazol-5-yl)phenyl)methyl]-1-[(2S)-2-[(1-fluorocyclopropyl)formamido]-3,3-dimethylbutanoyl]-4-hydroxypyrrolidine-2-carboxamide] | 6.00 to 8.00 | < 1000 nM | 1000 to 10000 nM | 5.00 to 6.00 |
| C[C@H](Oc1cc(-c2nn(C)c3c(-c4cnn(C5CCN(C(=O)COC6CCN(c7cccc8c7C(=O)N(C7CCC(=O)NC7=O)C8=O)CC6)CC5)c4)cnc(N)c23)ccc1NS(=O)(=O)C(F)F)c1ccc(F)cc1 (stereo partly drawn) [Compound 1072, N-{4-[4-amino-7-(1-{1-[2-({1-[2-(2,6-dioxopiperidin-3-yl)-1,3-dioxo-2,3-dihydro-1H-isoindol-4-yl]piperidin-4-yl}oxy)acetyl]piperidin-4-yl}-1H-pyrazol-4-yl)-1-methyl-1H-pyrazolo[4,3-c]pyridin-3-yl]-2-[(1S)-1-(4-fluorophenyl)ethoxy]phenyl}-1,1-difluoromethane-sulfonamide] | > 8.00 | < 1000 nM | < 1000 nM | 5.00 to 6.00 |
